In this assay the target is T1, CFTR in F508del/MF-HBE cells (Homo sapiens, UniProt P13569, DEL508-508).
T1 construct: human bronchial epithelial (HBE) cells derived from CF subjects heterozygous for F508del and a minimal function CFTR mutation; endogenous in cells; host or cells: primary human bronchial epithelial cells from CF subjects (F508del/MF-HBE)
T1 sequence (P13569 with tags, fused parts or gaps DEL508-508): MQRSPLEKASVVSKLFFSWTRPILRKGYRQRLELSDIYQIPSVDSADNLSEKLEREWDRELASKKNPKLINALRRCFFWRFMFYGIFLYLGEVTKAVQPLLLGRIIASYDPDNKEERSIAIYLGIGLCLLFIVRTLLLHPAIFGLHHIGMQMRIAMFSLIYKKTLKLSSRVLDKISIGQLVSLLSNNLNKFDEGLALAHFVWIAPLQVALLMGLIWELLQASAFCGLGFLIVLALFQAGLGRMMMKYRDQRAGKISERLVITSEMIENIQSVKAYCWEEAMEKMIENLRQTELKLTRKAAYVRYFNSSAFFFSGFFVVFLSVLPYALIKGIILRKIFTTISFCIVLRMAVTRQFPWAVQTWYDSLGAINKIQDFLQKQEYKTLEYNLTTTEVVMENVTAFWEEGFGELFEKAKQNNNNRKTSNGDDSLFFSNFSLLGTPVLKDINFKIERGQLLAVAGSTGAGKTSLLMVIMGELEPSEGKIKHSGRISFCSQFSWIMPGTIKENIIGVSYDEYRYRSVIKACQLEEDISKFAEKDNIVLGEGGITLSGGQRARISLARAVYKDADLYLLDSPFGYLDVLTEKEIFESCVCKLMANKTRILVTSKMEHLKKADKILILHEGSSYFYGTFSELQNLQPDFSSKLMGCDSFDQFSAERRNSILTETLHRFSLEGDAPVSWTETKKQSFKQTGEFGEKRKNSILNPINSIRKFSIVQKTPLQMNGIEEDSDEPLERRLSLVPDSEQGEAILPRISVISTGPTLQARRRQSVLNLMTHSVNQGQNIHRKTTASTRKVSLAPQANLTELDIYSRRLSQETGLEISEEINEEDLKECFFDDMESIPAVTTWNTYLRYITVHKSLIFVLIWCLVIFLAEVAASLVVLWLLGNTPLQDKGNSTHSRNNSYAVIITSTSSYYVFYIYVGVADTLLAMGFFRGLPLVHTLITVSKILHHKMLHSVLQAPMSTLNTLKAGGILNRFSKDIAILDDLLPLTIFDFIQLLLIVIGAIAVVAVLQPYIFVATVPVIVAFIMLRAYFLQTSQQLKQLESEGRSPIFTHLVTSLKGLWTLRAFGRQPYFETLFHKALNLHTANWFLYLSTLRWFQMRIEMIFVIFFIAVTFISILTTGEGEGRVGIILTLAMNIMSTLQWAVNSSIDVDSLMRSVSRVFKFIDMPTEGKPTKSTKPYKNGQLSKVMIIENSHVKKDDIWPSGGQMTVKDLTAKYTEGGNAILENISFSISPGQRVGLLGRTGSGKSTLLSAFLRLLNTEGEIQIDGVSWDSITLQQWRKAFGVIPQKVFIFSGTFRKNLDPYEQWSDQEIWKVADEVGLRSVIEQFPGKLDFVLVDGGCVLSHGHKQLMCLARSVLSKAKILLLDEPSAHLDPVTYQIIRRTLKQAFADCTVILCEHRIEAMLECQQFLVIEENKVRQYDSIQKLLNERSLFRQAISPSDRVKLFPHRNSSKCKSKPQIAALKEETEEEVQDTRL
Kind of assay: Ussing chamber assay of CFTR-mediated short-circuit currents (identification of potentiator compounds). Type of assay: cell-based. The following applies: potentiator incubated 18-24 hours at 37° C. in combination with 10 μM corrector, in the presence of 20% human serum, CFTR-mediated ISC. The essentials: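 F508del/MF-HBE cultures were preincubated 18-24 h at 37° C with potentiator plus 10 μM of a fixed corrector compound in 20% human serum; compounds were kept present during measurement. ISC was recorded under voltage clamp (0 mV, 37° C, amiloride apical) and taken as the 20 μM forskolin peak minus the current after inhibitor cocktail.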
Broadly, the EC50 is the concentration that produces a half-maximal response. In the case of `Nc1cc(C(F)(F)F)c2nc1-c1nnc(o1)[C@@](O)(C(F)(F)F)CCCCCN(C1CCCC1)C2=O` [Compound 100, (6R)-17-Amino-12-cyclopentyl-6-hydroxy-6,15-bis (trifluoromethyl)-19-oxa-3,4,12,18-tetrazatricyclo [12.3.1.12,5] nonadeca-1(18),2,4,14,1 6-pentaen-13-one], the EC50 was less than 500 nM.

Consider `Nc1cc(C(F)(F)F)c2nc1-c1nnc(o1)[C@@](O)(C(F)(F)F)CCCCCN(Cc1ccc3c(c1)OC(F)(F)O3)C2=O` [Compound 101, (6R)-Amino-12-[(2,2-difluoro-1,3-benzodioxol-5-yl)methyl]-6-hydroxy-6,15-bis (trifluoromethyl)-19-oxa-3,4,12,18-tetrazatricyclo [12.3.1.12,5] nonadeca-1(18),2,4,14,1 6-pentaen-13-one], for which the EC50 is less than 500 nM.

In the case of `Nc1cc(C(F)(F)F)c2nc1-c1nnc(o1)[C@@](O)(C(F)(F)F)CCCCCN(C1CCS(=O)(=O)CC1)C2=O` [Compound 102, (6R)-17-Amino-12-(1,1-dioxothian-4-yl)-6-hydroxy-6,15-bis (trifluoromethyl)-19-oxa-3,4,12,18-tetrazatricyclo [12.3.1.12,5] nonadeca-1(18),2,4,14,1 6-pentaen-13-one], the EC50 is more than 1000 nM.

Turning to `Nc1cc(C(F)(F)F)c2nc1-c1nnc(o1)[C@@](O)(C(F)(F)F)CCCCCN(C1CS(=O)(=O)C1)C2=O` [Compound 103, (6R)-17-Amino-12-(1,1-dioxothietan-3-yl)-6-hydroxy-6,15-bis (trifluoromethyl)-19-oxa-3,4,12,18-tetrazatricyclo [12.3.1.12,5] nonadeca-1(18),2,4,14,1 6-pentaen-13-one], the 50% effective concentration (EC50) was more than 1000 nM.

Take `C[C@@H](c1ccc(F)cc1)N1CCCCC[C@](O)(C(F)(F)F)C2=NN=C(O2)c2nc(c(C(F)(F)F)cc2N)C1=O` [Compound 104, (6R)-17-Amino-12-[(1S)-1-(4-fluorophenyl)ethyl]-6-hydroxy-6,15-bis (trifluoromethyl)-19-oxa-3,4,12,18-tetrazatricyclo [12.3.1.12,5] nonadeca-1(18),2,4,14,1 6-pentaen-13-one]: the EC50 is less than 500 nM.

Consider `C[C@H](c1ccc(F)cc1)N1CCCCC[C@](O)(C(F)(F)F)C2=NN=C(O2)c2nc(c(C(F)(F)F)cc2N)C1=O` [Compound 105, (6R)-17-Amino-12-[(1R)-1-(4-fluorophenyl)ethyl]-6-hydroxy-6,15-bis (trifluoromethyl)-19-oxa-3,4,12,18-tetrazatricyclo [12.3.1.12,5] nonadeca-1(18),2,4,14,1 6-pentaen-13-one], for which the EC50 was less than 500 nM.

`Nc1cc(C(F)(F)F)c2nc1-c1nnc(o1)[C@@](O)(C(F)(F)F)CCCCCN(Cc1ccc(OC(F)(F)F)cc1)C2=O` [Compound 106, (6R)-17-Amino-6-hydroxy-12-[[4-(trifluoromethoxy)phenyl]methyl]-6,15-bis (trifluorom 19-oxa-ethyl)-3,4,12,18-tetrazatricyclo [12.3.1.12,5] nonadeca-1(18),2,4,14,1 6-pentaen-13-one]: the half-maximal effective concentration (EC50) was less than 500 nM.

Regarding `Nc1cc(C(F)(F)F)c2nc1-c1nnc(o1)[C@@](O)(C(F)(F)F)CCCCCN(c1ccccn1)C2=O` [Compound 107, (6R)-17-Amino-6-hydroxy-12-(2-pyridyl)-6,15-bis (trifluoromethyl)-19-oxa-3,4,12,18-tetrazatricyclo [12.3.1.12,5] nonadeca-1(18),2,4,14,1 6-pentaen-13-one], the EC50 was less than 500 nM.

For `Nc1cc(C(F)(F)F)c2nc1-c1nnc(o1)[C@@](O)(C(F)(F)F)CCCCCN(c1ccccc1)C2=O` [Compound 108, (6R)-17-Amino-6-hydroxy-12-phenyl-6,15-bis (trifluorom 19-oxa-ethyl)-3,4,12,18-tetrazatricyclo [12.3.1.12,5] nonadeca-1(18),2,4,14,1 6-pentaen-13-one], the EC50 was less than 500 nM.

For the compound `Cn1cc(N2CCCCC[C@](O)(C(F)(F)F)C3=NN=C(O3)c3nc(c(C(F)(F)F)cc3N)C2=O)cn1` [Compound 109, (6R)-17-Amino-6-hydroxy-12-(1-methylpyrazol-4-yl)-6,15-bis (trifluoromethyl)-19-oxa-3,4,12,18-tetrazatricyclo [12.3.1.12,5] nonadeca-1(18),2,4,14,1 6-pentaen-13-one], the EC50 was less than 500 nM.

`Nc1cc(C(F)(F)F)c2nc1-c1nnc(o1)[C@@](O)(C(F)(F)F)CCCCCN(Cc1cccc3ccccc13)C2=O` [Compound 110, (6R)-17-Amino-6-hydroxy-12-(1-naphthylmethyl)-6,15-bis (trifluoromethyl)-19-oxa-3,4,12,18-tetrazatricyclo [12.3.1.12,5] nonadeca-1(18),2,4,14,1 6-pentaen-13-one]: the EC50 is less than 500 nM.

As for `Nc1cc(C(F)(F)F)c2nc1-c1nnc(o1)[C@@](O)(C(F)(F)F)CCCCCN(Cc1ccc3ccccc3c1)C2=O` [Compound 111, (6R)-17-Amino-6-hydroxy-12-(2-naphthylmethyl)-6,15-bis (trifluoromethyl)-19-oxa-3,4,12,18-tetrazatricyclo [12.3.1.12,5] nonadeca-1(18),2,4,14,1 6-pentaen-13-one], the 50% effective concentration (EC50) is less than 500 nM.

As for `Nc1cc(C(F)(F)F)c2nc1-c1nnc(o1)[C@@](O)(C(F)(F)F)CCCCCN(Cc1cc[nH]n1)C2=O` [Compound 112, (6R)-17-Amino-6-hydroxy-12-(1H-pyrazol-3-ylmethyl)-6,15-bis (trifluoromethyl)-19-oxa-3,4,12,18-tetrazatricyclo [12.3.1.12,5] nonadeca-1(18),2,4,14,1 6-pentaen-13-one], the EC50 is more than 1000 nM.

On to `Nc1cc(C(F)(F)F)c2nc1-c1nnc(o1)[C@@](O)(C(F)(F)F)CCCCCN(Cc1cn[nH]c1)C2=O` [Compound 113, (6R)-17-Amino-6-hydroxy-12-(1H-pyrazol-4-ylmethyl)-6,15-bis (trifluoromethyl)-19-oxa-3,4,12,18-tetrazatricyclo [12.3.1.12,5] nonadeca-1(18),2,4,14,1 6-pentaen-13-one], for which the concentration giving a half-maximal response (EC50) was more than 1000 nM.

As for `CC(C)(C)c1ccc(CN2CCCCC[C@](O)(C(F)(F)F)C3=NN=C(O3)c3nc(c(C(F)(F)F)cc3N)C2=O)cc1` [Compound 116, (6R)-17-Amino-12-[(4-tert-butylphenyl)methyl]-6-hydroxy-6,15-bis (trifluoromethyl)-19-oxa-3,4,12,18-tetrazatricyclo [12.3.1.12,5] nonadeca-1(18),2,4,14,1 6-pentaen-13-one], the half-maximal effective concentration (EC50) was less than 500 nM.

`Cn1ccc(CN2CCCCC[C@](O)(C(F)(F)F)C3=NN=C(O3)c3nc(c(C(F)(F)F)cc3N)C2=O)n1` [Compound 117, (6R)-17-Amino-6-hydroxy-12-[(1-methylpyrazol-3-yl)methyl]-6,15-bis (trifluorom ethyl)-19-oxa-3,4,12,18-tetrazatricyclo [12.3.1.12,5] nonadeca-1(18),2,4,14,1 6-pentaen-13-one]: the EC50 is more than 1000 nM.

For `Cn1cc(CN2CCCCC[C@](O)(C(F)(F)F)C3=NN=C(O3)c3nc(c(C(F)(F)F)cc3N)C2=O)cn1` [Compound 118, (6R)-17-Amino-6-hydroxy-12-[(1-methylpyrazol-4-yl)methyl]-6,15-bis (trifluoromethyl)-19-oxa-3,4,12,18-tetrazatricyclo [12.3.1.12,5] nonadeca-1(18),2,4,14,1 6-pentaen-13-one], the EC50 was more than 1000 nM.

Regarding `CC(C)(C)c1ccc(CN2CCCCC[C@](O)(C(F)(F)F)C3=NN=C(O3)c3nc(c(C(F)(F)F)cc3N)C2=O)cn1` [Compound 119, (6R)-17-Amino-12-[(6-tert-butyl-3-pyridyl)methyl]-6-hydroxy-6,15-bis (trifluoromethyl)-19-oxa-3,4,12,18-tetrazatricyclo [12.3.1.12,5] nonadeca-1(18),2,4,14,1 6-pentaen-13-one], the EC50 is less than 500 nM.

On to `CC(C)(C)c1ccc(CN2CCCCC[C@](O)(C(F)(F)F)C3=NN=C(O3)c3nc(c(C(F)(F)F)cc3N)C2=O)nc1` [Compound 120, (6R)-17-Amino-12-[(5-tert-butyl-2-pyridyl)methyl]-6-hydroxy-6,15-bis (trifluoromethyl)-19-oxa-3,4,12,18-tetrazatricyclo [12.3.1.12,5] nonadeca-1(18),2,4,14,1 6-pentaen-13-one], for which the EC50 was less than 500 nM.

On to `Nc1cc(C(F)(F)F)c2nc1-c1nnc(o1)[C@@](O)(C(F)(F)F)CCCCCN(C13CC(F)(C1)C3)C2=O` [Compound 121, (6R)-17-Amino-12-(3-fluoro-1-bicyclo[1.1.1]pentanyl)-6-hydroxy-6,15-bis (trifluorom ethyl)-19-oxa-3,4,12,18-tetrazatricyclo [12.3.1.12,5] nonadeca-1(18),2,4,14,1 6-pentaen-13-one], for which the concentration for a half-maximal effect (EC50) was less than 500 nM.

Take `CC12CC(N3CCCCC[C@](O)(C(F)(F)F)c4nnc(o4)-c4nc(c(C(F)(F)F)cc4N)C3=O)(C1)C2` [Compound 122, (6R)-17-Amino-6-hydroxy-12-(3-methyl-1-bicyclo[1.1.1]pentanyl)-6,15-bis (trifluoromethyl)-19-oxa-3,4,12,18-tetrazatricyclo [12.3.1.12,5] nonadeca-1(18),2,4,14,1 6-pentaen-13-one]: the EC50 was less than 500 nM.

On to `CC(C)(C)C12CC(N3CCCCC[C@](O)(C(F)(F)F)c4nnc(o4)-c4nc(c(C(F)(F)F)cc4N)C3=O)(C1)C2` [Compound 123, (6R)-17-Amino-12-(3-tert-butyl-1-bicyclo[1.1.1]pentanyl)-6-hydroxy-6,15-bis (trifluoromethyl)-19-oxa-3,4,12,18-tetrazatricyclo [12.3.1.12,5] nonadeca-1(18),2,4,14,1 6-pentaen-13-one], for which the EC50 is less than 500 nM.
